Results on 33 compounds are retold here after patent publication US11555012B2 (Nimbus Artemis, Inc., priority 2018, dated 2023).

For assay [1], the target named is T1, ACL (Homo sapiens (Human), UniProt P53396). The experiment in a line: ADP-Glo Assay.
Target sequence in this assay (P53396 other isoform, or with tags, fused parts or gaps isoform P53396-2): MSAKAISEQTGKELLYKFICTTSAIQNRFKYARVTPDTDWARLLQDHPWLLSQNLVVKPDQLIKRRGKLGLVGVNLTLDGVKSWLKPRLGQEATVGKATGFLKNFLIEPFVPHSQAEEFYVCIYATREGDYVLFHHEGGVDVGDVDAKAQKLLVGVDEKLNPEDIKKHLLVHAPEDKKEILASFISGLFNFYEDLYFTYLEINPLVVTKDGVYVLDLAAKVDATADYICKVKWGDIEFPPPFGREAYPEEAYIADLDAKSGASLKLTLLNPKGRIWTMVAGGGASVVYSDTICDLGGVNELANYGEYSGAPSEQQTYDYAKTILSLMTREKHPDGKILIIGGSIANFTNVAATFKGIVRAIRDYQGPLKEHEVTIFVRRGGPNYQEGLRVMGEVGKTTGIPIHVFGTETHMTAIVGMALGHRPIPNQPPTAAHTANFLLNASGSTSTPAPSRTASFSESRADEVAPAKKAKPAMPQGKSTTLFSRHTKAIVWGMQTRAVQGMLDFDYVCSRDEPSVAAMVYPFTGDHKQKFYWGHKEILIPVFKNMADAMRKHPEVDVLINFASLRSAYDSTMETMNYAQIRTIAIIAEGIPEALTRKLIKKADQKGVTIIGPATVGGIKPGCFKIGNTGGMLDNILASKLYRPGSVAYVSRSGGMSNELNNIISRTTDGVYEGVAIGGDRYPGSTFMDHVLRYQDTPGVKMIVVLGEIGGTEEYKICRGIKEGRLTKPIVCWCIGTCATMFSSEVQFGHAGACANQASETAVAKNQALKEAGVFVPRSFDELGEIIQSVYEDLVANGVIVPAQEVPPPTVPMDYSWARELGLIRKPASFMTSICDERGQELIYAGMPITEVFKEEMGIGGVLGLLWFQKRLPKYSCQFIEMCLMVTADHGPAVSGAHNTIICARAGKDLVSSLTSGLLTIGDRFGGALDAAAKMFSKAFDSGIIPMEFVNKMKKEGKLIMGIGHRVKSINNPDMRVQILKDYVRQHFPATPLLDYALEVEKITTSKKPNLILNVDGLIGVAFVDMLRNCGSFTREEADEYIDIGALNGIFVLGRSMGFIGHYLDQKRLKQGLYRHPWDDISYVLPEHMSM
In assay [2] the target is T1, ACL. The experiment in a line: ACLY-MDH Coupled Assay.
Target sequence in this assay (P53396 whole entry, species assumed): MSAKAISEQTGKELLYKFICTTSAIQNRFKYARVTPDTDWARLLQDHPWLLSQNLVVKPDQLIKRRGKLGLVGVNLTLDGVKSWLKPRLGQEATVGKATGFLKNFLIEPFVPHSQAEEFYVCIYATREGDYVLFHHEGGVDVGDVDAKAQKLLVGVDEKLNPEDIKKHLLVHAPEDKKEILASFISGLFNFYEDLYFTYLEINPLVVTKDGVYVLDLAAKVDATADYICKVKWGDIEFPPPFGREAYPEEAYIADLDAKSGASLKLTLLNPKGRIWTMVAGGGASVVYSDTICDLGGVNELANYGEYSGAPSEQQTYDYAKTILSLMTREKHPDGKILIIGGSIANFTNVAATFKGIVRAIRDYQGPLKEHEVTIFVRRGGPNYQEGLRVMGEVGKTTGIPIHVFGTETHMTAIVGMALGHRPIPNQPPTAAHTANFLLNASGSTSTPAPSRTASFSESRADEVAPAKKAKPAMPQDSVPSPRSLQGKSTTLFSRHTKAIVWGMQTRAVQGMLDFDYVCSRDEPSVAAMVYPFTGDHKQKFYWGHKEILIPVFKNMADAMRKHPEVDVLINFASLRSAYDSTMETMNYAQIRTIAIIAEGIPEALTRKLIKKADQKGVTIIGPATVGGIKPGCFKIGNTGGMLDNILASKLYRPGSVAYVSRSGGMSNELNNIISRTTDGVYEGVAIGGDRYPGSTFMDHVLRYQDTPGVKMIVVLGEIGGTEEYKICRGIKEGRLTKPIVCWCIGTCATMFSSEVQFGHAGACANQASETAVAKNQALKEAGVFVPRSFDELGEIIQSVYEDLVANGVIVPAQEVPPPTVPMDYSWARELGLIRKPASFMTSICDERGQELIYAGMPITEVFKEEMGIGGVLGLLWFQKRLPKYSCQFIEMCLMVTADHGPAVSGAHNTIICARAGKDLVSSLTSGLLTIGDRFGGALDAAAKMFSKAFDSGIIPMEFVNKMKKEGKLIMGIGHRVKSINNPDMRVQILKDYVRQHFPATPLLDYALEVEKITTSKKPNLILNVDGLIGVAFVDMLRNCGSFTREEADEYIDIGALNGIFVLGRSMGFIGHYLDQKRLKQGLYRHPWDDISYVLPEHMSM
Procedure: Compounds of the present invention were evaluated in an ACLY Coupled Assay.
The assay protocol for the Coupled Assay (below) was followed:
b) Add 1 μL cpds to 96 assay plate, Test cpd conc: 100/30/10 μM top dose, 3 folds dilution, 10+0+control (control: buffer without ACL+DMSO) points, 1000 rpm for 1 min, incubation at 25° C. for 60 min
Setting [3] is: read-out: ACL-ADP-Glo (IC50), 3 nM ACL, 15 μM ATP, 3 μM CoA, 300 μM Citrate.
[4] abbreviates: read-out: ACL-MDH Coupled Assay (IC50), 8 nM ACL, 60 μM CoA Na2, 85 μM Citrate, 250 μM ATP, 250 μM NADH.

The structures appear in SMILES notation. A value given as a limit tells only on which side of the number the result lay.

By IC50 is commonly meant the point on the concentration scale where inhibition reaches its midpoint. Turning to `O=C(c1cc(Cl)c(O)c(S(=O)(=O)Cc2cc(-c3ccccc3)c(F)cc2F)c1)N1CCCC1` [I-211, (3-chloro-5-(((4,6-difluoro-[1,1′-biphenyl]-3-yl)methyl)sulfonyl)-4-hydroxyphenyl)(pyrrolidin-1-yl)methanone], the IC50 on ACL [1] was 500 to 20000 nM; at ACL [2] it was 500 to 30000 nM.

As for `O=C(O)COc1ccc(-c2ccccc2)cc1NS(=O)(=O)c1cc(Cl)cc(Cl)c1O` [I-212, 2-[[3-(3,5-dichloro-2-hydroxybenzenesulfonamido)-[1,1-biphenyl]-4-yl]oxy]acetic Acid], the IC50 on ACL [1] lay in the range of 50 to 500 nM; on ACL [2], 500 to 30000 nM.

`O=C(c1cc(Cl)c(O)c(S(=O)(=O)Nc2cc3ccsc3cc2F)c1)N1CCC1` [I-221, 5-(azetidine-1-carbonyl)-3-chloro-N-(6-fluoro-1-benzothiophen-5-yl)-2-hydroxybenzene-1-sulfonamide]: the figures for the half-maximal inhibitory concentration (IC50) against ACL [1] and against ACL [2] were 500 to 20000 nM and 500 to 30000 nM, respectively.

In the case of `O=C(c1cc(Cl)c(O)c(S(=O)(=O)Nc2cc(-c3ccccc3)ncc2F)c1)N1CCC1` [I-222, 5-(azetidine-1-carbonyl)-3-chloro-N-(5-fluoro-2-phenylpyridin-4-yl)-2-hydroxybenzene-1-sulfonamide], the IC50 on ACL [1] lay within 50 to 500 nM; against ACL [2], 500 to 30000 nM.

Regarding `N#Cc1cc(Cl)cc(S(=O)(=O)Nc2cc(-c3ccccc3)ccc2C(=O)O)c1` [I-226, 3-((3-chloro-5-cyanophenyl)sulfonamido)-[1,1′-biphenyl]-4-carboxylic acid], the IC50 against ACL [1] was in the range of 500 to 20000 nM; against ACL [2] it was 500 to 30000 nM.

For `O=C(c1cc(Cl)c(O)c(S(=O)(=O)N(C(=O)C2CC2)c2cc(-c3ccccc3)c(F)cc2F)c1)N1CCC1` [I-229, N-((5-(azetidine-1-carbonyl)-3-chloro-2-hydroxyphenyl)sulfonyl)-N-(4,6-difluoro-[1,1′-biphenyl]-3-yl)cyclopropanecarboxamide], the IC50 is below 50 nM at ACL [1] (setting [3]) and 50 to 500 nM against ACL [2].

In the case of `Cc1cc(C)cc(S(=O)(=O)Nc2cc(-c3ccccc3)ccc2C(=O)O)c1` [I-232, 3-((3,5-dimethylphenyl)sulfonamido)-[1,1′-biphenyl]-4-carboxylic acid], the IC50 was in the range of 500 to 20000 nM at ACL [1] and 500 to 30000 nM against ACL [2].

On to `CC(C)(Oc1ccc(-c2ccccc2)cc1NS(=O)(=O)c1cc(Cl)cc(Cl)c1O)C(=O)O` [I-239, 2-((3-((3,5-dichloro-2-hydroxyphenyl)sulfonamido)-[1,1′-biphenyl]-4-yl)oxy)-2-methylpropanoic Acid], for which the half-maximal inhibitory concentration (IC50) is 500 to 20000 nM against ACL [1] and 500 to 30000 nM at ACL [2].

As for `O=S(=O)(Nc1cc(Cl)cc(-c2nccs2)c1)c1cc(Cl)cc(Cl)c1O` [I-240, 3,5-dichloro-N-(3-chloro-5-(thiazol-2-yl)phenyl)-2-hydroxybenzenesulfonamide], the IC50 against ACL [1] lay within 500 to 20000 nM; at ACL [2], 500 to 30000 nM.

Turning to `O=C(c1cc(Cl)c(O)c(S(=O)(=O)Nc2cc(-n3nccn3)ccc2F)c1)N1CCC1` [I-241, 5-(azetidine-1-carbonyl)-3-chloro-N-(2-fluoro-5-(2H-1,2,3-triazol-2-yl)phenyl)-2-hydroxybenzenesulfonamide], the IC50 at ACL [1] was in the range of 50 to 500 nM; against ACL [2], 500 to 30000 nM.

In the case of `O=C(O)c1cc(-c2ccccc2)sc1NS(=O)(=O)c1cc(Cl)cc(Cl)c1` [I-242, 2-((3,5-dichlorophenyl)sulfonamido)-5-phenylthiophene-3-carboxylic Acid], the IC50 was 500 to 20000 nM on ACL [1] and 500 to 30000 nM at ACL [2].

`O=C(O)c1ncc(-c2ccccc2)cc1NS(=O)(=O)c1cc(Cl)cc(Cl)c1` [I-243, 3-((3,5-dichlorophenyl)sulfonamido)-5-phenylpicolinic Acid]: the concentration for half-maximal inhibition (IC50) on ACL [1] lay in the range of 500 to 20000 nM; at ACL [2], 500 to 30000 nM.

For `O=C(O)c1cc(Cl)c(O)c(S(=O)(=O)Nc2cc(-c3cccs3)c(F)cc2F)c1` [I-248, 3-chloro-5-[[2,4-difluoro-5-(thiophen-2-yl)phenyl]sulfamoyl]-4-hydroxybenzoic Acid], the results for the IC50 against ACL [1] and against ACL [2] were 500 to 20000 nM and 500 to 30000 nM, respectively.

For `O=C(O)c1ccc(-c2ccccc2)cc1NS(=O)(=O)c1cc(Cl)cc(Cl)c1O` [I-249, 3-((3,5-dichloro-2-hydroxyphenyl)sulfonamido)-[1,1′-biphenyl]-4-carboxylic acid], the results for the concentration for half-maximal inhibition (IC50) on ACL [1] and at ACL [2] were 500 to 20000 nM and 500 to 30000 nM, respectively.

On to `O=C(O)COc1ccc(-c2ccccc2)cc1NS(=O)(=O)c1cc(C(F)(F)F)cc(Cl)c1O` [I-264, 2-([3-[3-chloro-2-hydroxy-5-(trifluoromethyl)benzenesulfonamido]-[1,1-biphenyl]-4-yl]oxy)acetic Acid], for which the values for the IC50 at ACL [1] and against ACL [2] were 500 to 20000 nM and 500 to 30000 nM, respectively.

`CC(C)(C)OC(=O)COc1ccc(-c2ccccc2)cc1NS(=O)(=O)c1cc(C(=O)N2CCC2)cc(Cl)c1O` [I-266, tert-butyl 2-((3-((5-(azetidine-1-carbonyl)-3-chloro-2-hydroxyphenyl)sulfonamido)-[1,1′-biphenyl]-4-yl)oxy)acetate]: the results for the half-inhibitory concentration (IC50) against ACL [1] and against ACL [2] were 500 to 20000 nM and 500 to 30000 nM, respectively.

As to `O=S(=O)(Nc1cc(-c2ccccc2)c(F)cc1F)c1cc(-c2nnn[nH]2)cc(Cl)c1O` [I-269, 3-chloro-N-[4,6-difluoro-[1,1-biphenyl]-3-yl]-2-hydroxy-5-(1H-1,2,3,4-tetrazol-5-yl)benzene-1-sulfonamide], the values for the half-inhibitory concentration (IC50) on ACL [1] and at ACL [2] were 500 to 20000 nM and 500 to 30000 nM, respectively.

Take `COc1ccc(-c2ccccc2)cc1NS(=O)(=O)c1cc(C(=O)N2CC(N)C2)cc(Cl)c1O` [I-276, 5-(3-aminoazetidine-1-carbonyl)-3-chloro-2-hydroxy-N-[4-methoxy-[1,1-biphenyl]-3-yl]benzene-1-sulfonamide]: the concentration for half-maximal inhibition (IC50) at ACL [1] (setting [3]) was below 50 nM; against ACL [2] it was 50 to 500 nM.

With `NC1CN(C(=O)c2cc(Cl)c(O)c(S(=O)(=O)Nc3cc(-c4cc5ccccc5s4)c(F)cc3F)c2)C1` [I-282, 5-(3-aminoazetidine-1-carbonyl)-N-(5-(benzo[b]thiophen-2-yl)-2,4-difluorophenyl)-3-chloro-2-hydroxybenzenesulfonamide], the half-maximal inhibitory concentration (IC50) on ACL [1] (setting [3]) and on ACL [2] (setting [4]) was below 50 nM in each case.

On to `O=C(O)c1cc(F)c(-c2ccccc2)cc1NS(=O)(=O)c1cc(Cl)cc(Cl)c1O` [I-289, 5-((3,5-dichloro-2-hydroxyphenyl)sulfonamido)-2-fluoro-[1,1′-biphenyl]-4-carboxylic Acid], for which the IC50 fell in the range of 500 to 20000 nM against ACL [1] and 500 to 30000 nM on ACL [2].

`O=C(O)c1ccc(-c2cc3ccccc3s2)cc1NS(=O)(=O)c1cc(Cl)cc(Cl)c1` [I-293, 4-(benzo[b]thiophen-2-yl)-2-((3,5-dichlorophenyl)sulfonamido)benzoic acid]: the IC50 against ACL [1] was in the range of 500 to 20000 nM; on ACL [2] it was 500 to 30000 nM.

For `O=C(O)c1ccc(-c2cc3ccccc3s2)cc1NS(=O)(=O)c1cc(Cl)cc(C(F)(F)F)c1` [I-294, 4-(benzo[b]thiophen-2-yl)-2-((3-chloro-5-(trifluoromethyl)phenyl)sulfonamido)benzoic Acid], the 50% inhibitory concentration (IC50) was 500 to 20000 nM on ACL [1] and 500 to 30000 nM against ACL [2].

As for `COC(=O)c1cc(Br)cc(S(=O)(=O)Nc2cc(-c3ccccc3)ccc2C(=O)O)c1` [I-295, 3-((3-bromo-5-(methoxycarbonyl)phenyl)sulfonamido)-[1,1′-biphenyl]-4-carboxylic Acid], the half-inhibitory concentration (IC50) against ACL [1] was in the range of 500 to 20000 nM; at ACL [2], 500 to 30000 nM.

Take `COc1c(Cl)cc(Cl)cc1S(=O)(=O)Nc1cc(-c2cc3ccccc3s2)ccc1C(=O)O` [I-297, 4-(benzo[b]thiophen-2-yl)-2-((3,5-dichloro-2-methoxyphenyl)sulfonamido)benzoic Acid]: the IC50 on ACL [1] lay within 500 to 20000 nM; on ACL [2] it was 500 to 30000 nM.

With `O=C(O)c1ccc(-c2ccccc2)cc1NS(=O)(=O)Cc1ccc(C(F)(F)F)cc1` [I-299, 3-(((4-(trifluoromethyl)phenyl)methyl)sulfonamido)-[1,1′-biphenyl]-4-carboxylic acid], the half-inhibitory concentration (IC50) on ACL [1] fell in the range of 500 to 20000 nM; against ACL [2] it was 500 to 30000 nM.

For the compound `O=C(O)c1ccc(-c2ccccc2)cc1NS(=O)(=O)Cc1cc(Cl)cc(Cl)c1` [I-305, 3-(((3,5-dichlorophenyl)methyl)sulfonamido)-[1,1′-biphenyl]-4-carboxylic acid], the IC50 against ACL [1] lay in the range of 500 to 20000 nM; against ACL [2], 500 to 30000 nM.

`O=C(O)c1ccc(-c2ccccc2)cc1NS(=O)(=O)c1cc(Br)cc(C(F)(F)F)c1` [I-306, 3-((3-bromo-5-(trifluoromethyl)phenyl)sulfonamido)-[1,1′-biphenyl]-4-carboxylic acid]: the half-maximal inhibitory concentration (IC50) against ACL [1] and on ACL [2] was 50 to 500 nM each time.

With `O=C(O)c1ccc(-c2ccccc2)cc1NS(=O)(=O)c1cc(Cl)c(Cl)s1` [I-311, 3-((4,5-dichlorothiophene)-2-sulfonamido)-[1,1′-biphenyl]-4-carboxylic acid], the results for the half-inhibitory concentration (IC50) against ACL [1] and against ACL [2] were 500 to 20000 nM and 500 to 30000 nM, respectively.

As to `O=C(O)c1occc1NS(=O)(=O)c1cc(Cl)cc(Cl)c1` [I-316, 3-((3,5-dichlorophenyl)sulfonamido)furan-2-carboxylic acid], the figures for the concentration for half-maximal inhibition (IC50) on ACL [1] and on ACL [2] were 500 to 20000 nM and 500 to 30000 nM, respectively.

For the compound `O=C(O)c1cc(F)c(-c2ccccc2)cc1NCc1cc(Cl)cc(Cl)c1` [I-317, 5-((3,5-dichlorobenzyl)amino)-2-fluoro-[1,1′-biphenyl]-4-carboxylic Acid], the figures for the IC50 on ACL [1] and against ACL [2] were 500 to 20000 nM and 500 to 30000 nM, respectively.

`O=C(O)c1sc(-c2ccc(Cl)cc2)cc1NS(=O)(=O)c1cc(Cl)cc(Cl)c1` [I-322, 5-(4-chlorophenyl)-3-((3,5-dichlorophenyl)sulfonamido)thiophene-2-carboxylic acid]: the IC50 at ACL [1] is 500 to 20000 nM; against ACL [2] it was 500 to 30000 nM.

With `O=c1[nH]cc(Cl)cc1S(=O)(=O)Nc1cc(-c2ccccc2)c(F)cc1F` [I-326, 5-chloro-N-(4,6-difluoro-[1,1′-biphenyl]-3-yl)-2-oxo-1,2-dihydropyridine-3-sulfonamide], the half-maximal inhibitory concentration (IC50) at ACL [1] (setting [3]) and at ACL [2] (setting [4]) was 50 to 500 nM throughout.

As to `CC(C)(C)C1CCN(S(=O)(=O)Nc2cc(-c3ccccc3)ccc2C(=O)O)CC1` [I-327], the IC50 against ACL [1] lay within 500 to 20000 nM; at ACL [2], 500 to 30000 nM.
